Results as given in patent US10219516B2, “Molecules having pesticidal utility, and intermediates, compositions, and processes, related thereto” (priority 2015, dated 2019).

Experiments:
Assay type in all cases: in vivo
[1] = system: Beet Armyworm (Spodoptera exigua, LAPHEG); test: Bioassay on Beet Armyworm (BAW), 128-well diet tray assay; settings: Species BAW (Beet Armyworm), read-out: BAW (Biological Results, rating)
Outline: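 Diet tray, 8 wells/compound; 50 μg/cm^2 applied to diet surface (90:10 acetone-water), dried. 1–5 L2 larvae/well; 25° C., 14:10 L:D, 5–7 d. Read-out: % mortality, mean of 8 wells.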

[2] = system: Cabbage Looper (Trichoplusia ni, TRIPNI); test: Bioassay on Cabbage Looper (CL), 128-well diet tray assay; settings: Trichoplusia ni; Species CL (Cabbage Looper); read-out: CL (Biological Results, rating)
Outline: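 Using eight wells per molecule, artificial diet was dosed at 50 μg/cm^2 with compound in 90:10 acetone-water and dried before one to five second-instar larvae were added per well. Covered vented trays were kept at 25° C. with 14:10 light-dark for five to seven days, then per-well percent mortality was recorded and averaged.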

[3] = system: Yellow Fever Mosquito (Aedes aegypti, AEDSAE); test: Bioassay on Yellow Fever Mosquito (YFM), 96-well plate larval assay; settings: Species YFM (Yellow Fever Mosquito)
Outline: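 Compound stocks at 4000 ppm in DMSO were diluted with 90:10 water/acetone, and 15 μL aliquots were dispensed into six replicate plates. About 1-day-old larvae in liver-powder water were added per well. Plates were covered and held at room temperature for 3 days before each well was scored for mortality.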

SMILES	pest or weed control at 50 µg/cm2 [1] [%]	pest or weed control at 50 µg/cm2 [2] [%]	YFM (Biological Results, rating) [3]
COc1c(Cl)cc([C@H]2[C@H](C(=O)Nc3ccc(Cl)c(C(=O)Nc4ccc(F)cc4F)c3)C2(Cl)Cl)cc1Cl (relative stereo) [F180, trans-2-Chloro-5-(2,2-dichloro-3-(3,5-dichloro-4-methoxyphenyl)cyclopropane-1-carboxamido)-N-(2,4-difluorophenyl)benzamide]	50 to 100	50 to 100	A (80-100)
N#Cc1cc(F)ccc1NC(=O)c1cc(NC(=O)[C@H]2[C@H](c3ccc(Cl)c(Cl)c3)C2(Cl)Cl)ccc1Cl (relative stereo) [F190, trans-2-Chloro-N-(2-cyano-4-fluorophenyl)-5-(2,2-dichloro-3-(3,4-dichlorophenyl)cyclopropane-1-carboxamido)benzamide]	50 to 100	50 to 100	A (80-100)
O=C(Nc1ccc(I)cc1)c1cc(NC(=O)[C@H]2[C@H](c3cc(Cl)cc(Cl)c3)C2(Cl)Cl)ccc1Cl (relative stereo) [F193, trans-2-Chloro-5-(2,2-dichloro-3-(3,5-dichlorophenyl)cyclopropane-1-carboxamido)-N-(4-iodophenyl)benzamide]	50 to 100	50 to 100	B (More than 0-Less than 80)
O=C(Nc1cccc(I)c1)c1cc(NC(=O)[C@H]2[C@H](c3cc(Cl)cc(Cl)c3)C2(Cl)Cl)ccc1Cl (relative stereo) [F194, trans-2-Chloro-5-(2,2-dichloro-3-(3,5-dichlorophenyl)cyclopropane-1-carboxamido)-N-(3-iodophenyl)benzamide]	50 to 100	50 to 100	B (More than 0-Less than 80)
Cc1cc(N)ccc1NC(=O)c1cc(NC(=O)[C@H]2[C@H](c3cc(Cl)cc(Cl)c3)C2(Cl)Cl)ccc1Cl (relative stereo) [F195, trans-N-(4-Amino-2-methylphenyl)-2-chloro-5-(2,2-dichloro-3-(3,5-dichlorophenyl)cyclopropane-1-carboxamido)benzamide]	50 to 100	50 to 100	A (80-100)
CNc1ccc(NC(=O)c2cc(NC(=O)[C@H]3[C@H](c4cc(Cl)cc(Cl)c4)C3(Cl)Cl)ccc2Cl)c(C)c1 (relative stereo) [F196, trans-2-Chloro-5-(2,2-dichloro-3-(3,5-dichlorophenyl)cyclopropane-1-carboxamido)-N-(2-methyl-4-(methylamino)phenyl)benzamide]	50 to 100	50 to 100	A (80-100)
COc1ccc(NC(=O)c2cc(NC(=O)[C@H]3[C@H](c4cc(Cl)cc(Cl)c4)C3(Cl)Cl)ccc2Cl)cc1N (relative stereo) [F199, trans-N-(3-Amino-4-methoxyphenyl)-2-chloro-5-(2,2-dichloro-3-(3,5-dichlorophenyl)cyclopropane-1-carboxamido)benzamide]	50 to 100	50 to 100	A (80-100)
CNc1cc(NC(=O)c2cc(NC(=O)[C@H]3[C@H](c4cc(Cl)cc(Cl)c4)C3(Cl)Cl)ccc2Cl)ccc1OC (relative stereo) [F200, trans-2-Chloro-5-(2,2-dichloro-3-(3,5-dichlorophenyl)cyclopropane-1-carboxamido)-N-(4-methoxy-3-(methylamino)phenyl)benzamide]	50 to 100	50 to 100	B (More than 0-Less than 80)
Nc1cccc(NC(=O)c2cc(NC(=O)[C@H]3[C@H](c4cc(Cl)cc(Cl)c4)C3(Cl)Cl)ccc2Cl)c1 (relative stereo) [F201, trans-N-(3-Aminophenyl)-2-chloro-5-(2,2-dichloro-3-(3,5-dichlorophenyl)cyclopropane-1-carboxamido)benzamide]	50 to 100	50 to 100	A (80-100)
CNc1cccc(NC(=O)c2cc(NC(=O)[C@H]3[C@H](c4cc(Cl)cc(Cl)c4)C3(Cl)Cl)ccc2Cl)c1 (relative stereo) [F202, trans-2-Chloro-5-(2,2-dichloro-3-(3,5-dichlorophenyl)cyclopropane-1-carboxamido)-N-(3-(methylamino)phenyl)benzamide]	50 to 100	50 to 100	A (80-100)
O=C(Nc1ccc(I)cc1F)c1cc(NC(=O)[C@H]2[C@H](c3cc(Cl)cc(Cl)c3)C2(Cl)Cl)ccc1Cl (relative stereo) [F203, trans-2-Chloro-5-(2,2-dichloro-3-(3,5-dichlorophenyl)cyclopropane-1-carboxamido)-N-(2-fluoro-4-iodophenyl)benzamide]	50 to 100	50 to 100	A (80-100)
O=C(Nc1ccc(I)c(F)c1)c1cc(NC(=O)[C@H]2[C@H](c3cc(Cl)cc(Cl)c3)C2(Cl)Cl)ccc1Cl (relative stereo) [F204, trans-2-Chloro-5-(2,2-dichloro-3-(3,5-dichlorophenyl)cyclopropane-1-carboxamido)-N-(3-fluoro-4-iodophenyl)benzamide]	50 to 100	50 to 100	A (80-100)
Cc1ccc(NC(=O)c2cc(NC(=O)[C@H]3[C@H](c4cc(Cl)cc(Cl)c4)C3(Cl)Cl)ccc2Cl)cc1N (relative stereo) [F205, trans-N-(3-Amino-4-methylphenyl)-2-chloro-5-(2,2-dichloro-3-(3,5-dichlorophenyl)cyclopropane-1-carboxamido)benzamide]	50 to 100	50 to 100	B (More than 0-Less than 80)
CNc1ccc(NC(=O)c2cc(NC(=O)[C@H]3[C@H](c4cc(Cl)cc(Cl)c4)C3(Cl)Cl)ccc2Cl)cc1C (relative stereo) [F206, trans-2-Chloro-5-(2,2-dichloro-3-(3,5-dichlorophenyl)cyclopropane-1-carboxamido)-N-(3-methyl-4-(methylamino)phenyl)benzamide]	50 to 100	50 to 100	A (80-100)
O=C(Nc1ccc(F)cc1)c1cc(NC(=O)[C@H]2[C@H](c3cc(Cl)cc(Cl)c3)C2(Cl)Cl)cc(Cl)c1Cl (relative stereo) [F216, trans-2,3-Dichloro-5-(2,2-dichloro-3-(3,5-dichlorophenyl)cyclopropane-1-carboxamido)-N-(4-fluorophenyl)benzamide]	50 to 100	50 to 100	B (More than 0-Less than 80)
O=C(Nc1ccc(-n2ccnn2)cc1)c1cc(NC(=O)[C@H]2[C@H](c3cc(Cl)cc(Cl)c3)C2(Cl)Cl)ccc1Cl (relative stereo) [F217, trans-N-(4-(1H-1,2,3-Triazol-1-yl)phenyl)-2-chloro-5-(2,2-dichloro-3-(3,5-dichlorophenyl)cyclopropane-1-carboxamido)benzamide]	50 to 100	50 to 100	B (More than 0-Less than 80)
O=C(Nc1ncc(F)cn1)c1cc(NC(=O)[C@H]2[C@H](c3cc(Cl)cc(Cl)c3)C2(Cl)Cl)ccc1Cl (relative stereo) [F222, trans-2-Chloro-5-(2,2-dichloro-3-(3,5-dichlorophenyl)cyclopropane-1-carboxamido)-N-(5-fluoropyrimidin-2-yl)benzamide]	50 to 100	50 to 100	A (80-100)
CNc1ccc(NC(=O)c2cc(NC(=O)[C@H]3[C@H](c4cc(Cl)c(Cl)c(Cl)c4)C3(Cl)Cl)ccc2Cl)c(C)c1 (relative stereo) [F223, trans-2-Chloro-5-(2,2-dichloro-3-(3,4,5-trichlorophenyl)cyclopropane-1-carboxamido)-N-(2-methyl-4-(methylamino)phenyl)benzamide]	50 to 100	50 to 100	A (80-100)
CNc1ccc(NC(=O)c2cc(NC(=O)[C@H]3[C@H](c4ccc(F)c(Cl)c4)C3(Cl)Cl)ccc2Cl)c(C)c1 (relative stereo) [F224, trans-2-Chloro-5-(2,2-dichloro-3-(3-chloro-4-fluorophenyl)cyclopropane-1-carboxamido)-N-(2-methyl-4-(methylamino)phenyl)benzamide]	50 to 100	50 to 100	A (80-100)
CNc1ccc(N(C)C(=O)c2cc(NC(=O)[C@H]3[C@H](c4cc(Cl)c(Cl)c(Cl)c4)C3(Cl)Cl)ccc2Cl)c(C)c1 (relative stereo) [F226, trans-2-Chloro-5-(2,2-dichloro-3-(3,4,5-trichlorophenyl)cyclopropane-1-carboxamido)-N-methyl-N-(2-methyl-4-(methylamino)phenyl)benzamide]	50 to 100	50 to 100	A (80-100)
Cc1cc(N)ccc1NC(=O)c1cc(NC(=O)[C@H]2[C@H](c3cc(Cl)c(Cl)c(Cl)c3)C2(Cl)Cl)ccc1Cl (relative stereo) [F227, trans-N-(4-Amino-2-methylphenyl)-2-chloro-5-(2,2-dichloro-3-(3,4,5-trichlorophenyl)cyclopropane-1-carboxamido)benzamide]	50 to 100	50 to 100	A (80-100)
